Assay results reported in the NIST ThermoML archive (doi:10.1021/je300974g).
Numbers after ± are expanded uncertainties.

Assays:
[1] = 101.33 kPa, Liquid, Vibrating tube method
[2] = xn = mol fraction of the nth substance listed; settings: 101 kPa, Liquid, Vibrating tube method

Structure (SMILES): CCCC(C)=O [pentan-2-one]
- mass density ([1]; 293.15 K): 807.47 ± 0.18 kg/m3
- mass density ([1]; 298.15 K): 802.46 ± 0.18 kg/m3
- mass density ([1]; 303.15 K): 797.53 ± 0.18 kg/m3
- mass density ([1]; 308.15 K): 792.52 ± 0.18 kg/m3
- mass density ([1]; 313.15 K): 787.44 ± 0.18 kg/m3

Structure (SMILES): CCNC=O [N-ethylformamide] + CCCOC(C)=O
- mass density ([2]; 293.15 K, x1 = 0.1294): 892.25 ± 0.19 kg/m3
- mass density ([2]; 293.15 K, x1 = 0.2456): 899.54 ± 0.19 kg/m3
- mass density ([2]; 293.15 K, x1 = 0.3565): 906.52 ± 0.2 kg/m3
- mass density ([2]; 293.15 K, x1 = 0.4694): 913.89 ± 0.21 kg/m3
- mass density ([2]; 293.15 K, x1 = 0.5596): 919.91 ± 0.21 kg/m3
- mass density ([2]; 293.15 K, x1 = 0.6587): 926.72 ± 0.22 kg/m3
- mass density ([2]; 293.15 K, x1 = 0.7478): 933 ± 0.23 kg/m3
- mass density ([2]; 293.15 K, x1 = 0.8363): 939.47 ± 0.24 kg/m3
- mass density ([2]; 293.15 K, x1 = 0.9182): 945.56 ± 0.25 kg/m3
- mass density ([2]; 298.15 K, x1 = 0.1294): 887.29 ± 0.19 kg/m3
- mass density ([2]; 298.15 K, x1 = 0.2456): 894.73 ± 0.19 kg/m3
- mass density ([2]; 298.15 K, x1 = 0.3565): 901.8 ± 0.2 kg/m3
- mass density ([2]; 298.15 K, x1 = 0.4694): 909.26 ± 0.21 kg/m3
- mass density ([2]; 298.15 K, x1 = 0.5596): 915.35 ± 0.21 kg/m3
- mass density ([2]; 298.15 K, x1 = 0.6587): 922.25 ± 0.22 kg/m3
- mass density ([2]; 298.15 K, x1 = 0.7478): 928.63 ± 0.23 kg/m3
- mass density ([2]; 298.15 K, x1 = 0.8363): 935.19 ± 0.24 kg/m3
- mass density ([2]; 298.15 K, x1 = 0.9182): 941.36 ± 0.25 kg/m3
- mass density ([2]; 303.15 K, x1 = 0.1294): 882.35 ± 0.19 kg/m3
- mass density ([2]; 303.15 K, x1 = 0.2456): 889.93 ± 0.19 kg/m3
- mass density ([2]; 303.15 K, x1 = 0.3565): 897.09 ± 0.2 kg/m3
- mass density ([2]; 303.15 K, x1 = 0.4694): 904.67 ± 0.21 kg/m3
- mass density ([2]; 303.15 K, x1 = 0.5596): 910.86 ± 0.21 kg/m3
- mass density ([2]; 303.15 K, x1 = 0.6587): 917.78 ± 0.22 kg/m3
- mass density ([2]; 303.15 K, x1 = 0.7478): 924.29 ± 0.23 kg/m3
- mass density ([2]; 303.15 K, x1 = 0.8363): 930.93 ± 0.24 kg/m3
- mass density ([2]; 303.15 K, x1 = 0.9182): 937.11 ± 0.25 kg/m3
- mass density ([2]; 308.15 K, x1 = 0.1294): 877.39 ± 0.19 kg/m3
- mass density ([2]; 308.15 K, x1 = 0.2456): 885.05 ± 0.2 kg/m3
- mass density ([2]; 308.15 K, x1 = 0.3565): 892.4 ± 0.2 kg/m3
- mass density ([2]; 308.15 K, x1 = 0.4694): 900.06 ± 0.21 kg/m3
- mass density ([2]; 308.15 K, x1 = 0.5596): 906.31 ± 0.21 kg/m3
- mass density ([2]; 308.15 K, x1 = 0.6587): 913.38 ± 0.22 kg/m3
- mass density ([2]; 308.15 K, x1 = 0.7478): 919.92 ± 0.23 kg/m3
- mass density ([2]; 308.15 K, x1 = 0.8363): 926.57 ± 0.24 kg/m3
- mass density ([2]; 308.15 K, x1 = 0.9182): 932.85 ± 0.25 kg/m3
- mass density ([2]; 313.15 K, x1 = 0.1294): 872.28 ± 0.19 kg/m3
- mass density ([2]; 313.15 K, x1 = 0.2456): 880.14 ± 0.2 kg/m3
- mass density ([2]; 313.15 K, x1 = 0.3565): 887.6 ± 0.2 kg/m3
- mass density ([2]; 313.15 K, x1 = 0.4694): 895.34 ± 0.21 kg/m3
- mass density ([2]; 313.15 K, x1 = 0.5596): 901.71 ± 0.21 kg/m3
- mass density ([2]; 313.15 K, x1 = 0.6587): 908.84 ± 0.22 kg/m3
- mass density ([2]; 313.15 K, x1 = 0.7478): 915.46 ± 0.23 kg/m3
- mass density ([2]; 313.15 K, x1 = 0.8363): 922.22 ± 0.24 kg/m3
- mass density ([2]; 313.15 K, x1 = 0.9182): 928.54 ± 0.25 kg/m3

Structure (SMILES): CCNC=O [N-ethylformamide]
- mass density ([1]; 293.15 K): 951.59 ± 0.24 kg/m3
- mass density ([1]; 298.15 K): 947.48 ± 0.24 kg/m3
- mass density ([1]; 303.15 K): 943.29 ± 0.24 kg/m3
- mass density ([1]; 308.15 K): 939.04 ± 0.24 kg/m3
- mass density ([1]; 313.15 K): 934.78 ± 0.24 kg/m3

Structure (SMILES): C1CCOCC1 [tetrahydropyran]
- mass density ([1]; 293.15 K): 884.08 ± 0.16 kg/m3
- mass density ([1]; 298.15 K): 878.95 ± 0.17 kg/m3
- mass density ([1]; 303.15 K): 873.79 ± 0.17 kg/m3
- mass density ([1]; 308.15 K): 868.67 ± 0.17 kg/m3
- mass density ([1]; 313.15 K): 863.43 ± 0.17 kg/m3

Structure (SMILES): CCCOC(C)=O [propyl ethanoate]
- mass density ([1]; 293.15 K): 887.97 ± 0.18 kg/m3
- mass density ([1]; 298.15 K): 882.21 ± 0.18 kg/m3
- mass density ([1]; 303.15 K): 876.54 ± 0.18 kg/m3
- mass density ([1]; 308.15 K): 870.81 ± 0.18 kg/m3
- mass density ([1]; 313.15 K): 864.95 ± 0.18 kg/m3
